The test system of series [1] is β2-microglobulin or chemokines. Briefly: Adsorbing ability of immobilized compounds of various log P values. As to conditions: compound immobilized on carrier. The class given is binding. The source says: In discovering compounds effective for adsorbing substances related to malady in body fluid, in particular, for adsorbing β2-microglobulin or chemokines, compounds having various log P values have been examined in a state of being immobilized.

For series [2] the following is noted: octanol-water system, found value; cited from earlier work.

Here are results for four compounds from patent publication US6878269B2, “Device for body fluid purification and system for body fluid purification” (Kaneka Corporation, priority 1996, dated 2005).

In the case of `CCCCCCCCCCCCCCCCN` [hexadecylamine], the “adsorbing ability for β2-microglobulin or chemokines” value in series [1] is “further enhanced”.
In the case of `CCCCN` [n-butylamine], in series [2], the “log P” value was 0.97.
As to `CCCCCCCCN` [n-octylamine], the “adsorbing ability for β2-microglobulin or chemokines” value in series [1] is reported as “enhanced to a great extent”.
On to `CCCCCCCCCCCCCCCCCCN` [octadecylamine], for which, in series [1] (guessed and not tested), the “adsorbing ability for β2-microglobulin or chemokines (guessed)” value is “equivalent to or better than that of hexadecylamine”.

What is called log P is the decadic logarithm of the partition coefficient of the neutral form, usually between octanol and water.
